Tests used:
[1] = In vitro serum stability, human serum; type: in vitro ADME; settings: up to 120 min
Protocol: (§1) In Vitro Serum Stability Studies: Human and mouse serum (Sigma-Aldrich) were centrifuged at 4° C., with speed of 13,000 rpm for 10 min. Formulated [^18F]DASA-23 (130-150 μCi, 20 μl volume) was added to 330 μl of supernatant. For control, the same volume of radiolabeled compound in 330 μl PBS was used. After vortexing the radiolabeled mixtures, 70 μl aliquots were incubated at 37° C. At predetermined time points (0, 15, 30, 60, and 120 min), 140 μl of ice-cold acetonitrile was added to corresponding samples to stop metabolism. After vortexing and centrifuging samples (10 min, 13,000 rpm), the supernatants were analyzed by analytical HPLC using the same conditions described above.

[2] = system: orthotopic U87 GBM tumors; assay: PET/CT/MR imaging and ex vivo autoradiography of mice bearing orthotopic U87 tumors; type: in vivo, mouse
Protocol: FIG. 10 illustrates non-invasive imaging of mice bearing orthotopic U87 tumor showing representative T2-weighted MR image and fused PET/CT/MR (10 to 30 min summed activity) of a mouse head bearing an orthotopically grown U87 tumor, white arrows indicate the tumor.
FIG. 11 illustrates non-invasive imaging of mice bearing orthotopic U87 tumor showing an ex vivo autoradiography of coronal mouse brain sections.
FIG. 12B illustrates non-invasive imaging of mice bearing orthotopic U87 tumor showing orthotopic U87 tumor and corresponding contralateral normal brain TAC taken from dynamic [^18F]DASA-23 PET/CT images. Data are means±SD (n=6 animals), ***p<0.001.
PET/MR co-registration confirmed precise correspondence of the [^18F]DASA-23 signal with the location of the intracranial tumors, further confirmed ex vivo by autoradiography.

[3] = In vitro serum stability, mouse serum; type: in vitro ADME; settings: up to 120 min
Protocol: as §1

HeLa cells = assay: Cell uptake of [18F]DASA-23 in HeLa cells; type: cell-based, human
Protocol: Cell Uptake Studies: HeLa cells (0.5×106) were plated into 6-well plates overnight before [^18F]DASA-23 uptake analysis. On the day of the experiment, fresh, prewarmed DMEM containing 25 μCi of [^18F]DASA-23 was added to individual wells (1 ml per well). Cells were incubated with [^18F]DASA-23 at 37° C. and 5% CO2 over a 60 min time course. […] At the specified time points, incubation plates were put on ice, washed with ice-cold phosphate-buffered saline (PBS) (3×500 μl), and lysed in radioimmunoprecipitation assay buffer (Thermo Fisher Scientific Inc.; 500 μl). A portion of the cell lysates (200 μl) were used to determine the amount of decay-corrected radioactivity on a gamma counter (Cobra II Auto-Gamma Counter; Packard Biosciences Co.). The remaining cell lysate was used post radioactive decay for determination of protein concentration using a bicinchoninic acid (BCA) assay (Thermo Fisher Scientific Inc.). Additionally, 10 μl standards from the solution of [^18F]DASA-23 in DMEM (25 μCi/mi) were counted to quantitate the percentage of radiotracer uptake. For efflux studies, HeLa cells were incubated with [^18F]DASA-23 for 60 min and then washed with room temperature Hanks' buffered salt solution (3×500 μl); a subsequent incubation was then completed at 37° C. in fresh, prewarmed radiotracer-free DMEM. At the specified times, samples were processed as described above.

PKM2 = PKM2 (Homo sapiens, UniProt P14618); settings: cited from earlier work; for AC50: read-out: AC50 (PKM2 activation); for selectivity for PKM2 versus other pyruvate kinase isozymes: versus PKM1, PKR and PKL
Sequence of PKM2 (P14618 whole entry, species assumed): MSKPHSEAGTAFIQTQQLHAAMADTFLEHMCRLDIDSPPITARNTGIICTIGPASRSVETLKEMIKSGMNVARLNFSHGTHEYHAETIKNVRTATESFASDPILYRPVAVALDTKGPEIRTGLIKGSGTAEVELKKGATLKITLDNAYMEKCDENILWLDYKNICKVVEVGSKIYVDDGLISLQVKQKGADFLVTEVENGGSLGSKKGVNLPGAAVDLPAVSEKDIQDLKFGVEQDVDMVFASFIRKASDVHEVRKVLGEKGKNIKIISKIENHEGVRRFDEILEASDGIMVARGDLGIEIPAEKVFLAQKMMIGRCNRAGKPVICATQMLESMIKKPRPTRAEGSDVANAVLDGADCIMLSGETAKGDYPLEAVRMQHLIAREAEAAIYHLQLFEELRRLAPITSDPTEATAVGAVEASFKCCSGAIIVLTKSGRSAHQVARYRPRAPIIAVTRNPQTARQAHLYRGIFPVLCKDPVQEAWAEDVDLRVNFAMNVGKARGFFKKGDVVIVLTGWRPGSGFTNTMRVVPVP

[4] = system: orthotopically growing human glioblastoma; settings: mouse models; cited from earlier work

| percentage of intact tracer ([1]; 37° C.) | serum stability [1] | percentage of intact tracer ([3]; 37° C.) | serum stability [3] | Structure (SMILES) | tumor delineation by dynamic PET imaging ([2]; orthotopic U87 GBM tumors vs surrounding normal brain, n=6 mice) | tumor uptake in blocking study (autoradiography) ([2]; pre-treatment with TEPP-46 (50 mg/kg) 60 min prior to tracer) | cell uptake (HeLa cells; 30 min) | cell uptake (HeLa cells; 60 min) | AC50 (PKM2) | selectivity for PKM2 versus other pyruvate kinase isozymes (PKM2) | detection of PKM2-expressing tumor in vivo [4] |
| --- | --- | --- | --- | --- | --- | --- | --- | --- | --- | --- | --- |
| 95.7% | stable | 95.8% | stable | COc1ccc(S(=O)(=O)N2CCN(S(=O)(=O)c3c(F)cccc3[18F])CC2)cc1 [[^18F]DASA-23, 1-((2-Fluoro-6-(Fluoro-^18F)Phenyl)Sulfonyl)-4-((4-Methoxyphenyl)Sulfonyl)Piperazine] | clearly delineated from the surrounding normal brain tissue | dramatic reduction in tumor uptake | 11.4±2.2 % of total tracer/mg protein | 21.0±2.0 % of total tracer/mg protein | 90 nM | selective activation of PKM2 |  |
|  |  |  |  | [11CH3]Oc1ccc(S(=O)(=O)N2CCN(S(=O)(=O)c3c(F)cccc3F)CC2)cc1 [[^11C]DASA-23] |  |  |  |  |  |  | successfully detected orthotopically growing human glioblastoma |
|  |  |  |  | COc1ccc(S(=O)(=O)N2CCN(S(=O)(=O)c3c(F)cccc3F)CC2)cc1 [DASA-23, reference compound] |  |  |  |  | 90 nM | selectivity for PKM2 relative to other PK enzymes |  |

From patent publication US10675366B2, “Imaging tumor glycolysis by non-invasive measurement of pyruvate kinase M2” (The Board of Trustees of the Leland Stanford Junior …, priority 2016, dated 2020)
